In general, IC50 refers to the midpoint of a concentration-inhibition curve. Read a high IC50 as lower potency.

Bounds are passed on as bounds.

The target of this assay is T1, TNKS1 (Homo sapiens, UniProt O95271).
T1 sequence (O95271 1-1327): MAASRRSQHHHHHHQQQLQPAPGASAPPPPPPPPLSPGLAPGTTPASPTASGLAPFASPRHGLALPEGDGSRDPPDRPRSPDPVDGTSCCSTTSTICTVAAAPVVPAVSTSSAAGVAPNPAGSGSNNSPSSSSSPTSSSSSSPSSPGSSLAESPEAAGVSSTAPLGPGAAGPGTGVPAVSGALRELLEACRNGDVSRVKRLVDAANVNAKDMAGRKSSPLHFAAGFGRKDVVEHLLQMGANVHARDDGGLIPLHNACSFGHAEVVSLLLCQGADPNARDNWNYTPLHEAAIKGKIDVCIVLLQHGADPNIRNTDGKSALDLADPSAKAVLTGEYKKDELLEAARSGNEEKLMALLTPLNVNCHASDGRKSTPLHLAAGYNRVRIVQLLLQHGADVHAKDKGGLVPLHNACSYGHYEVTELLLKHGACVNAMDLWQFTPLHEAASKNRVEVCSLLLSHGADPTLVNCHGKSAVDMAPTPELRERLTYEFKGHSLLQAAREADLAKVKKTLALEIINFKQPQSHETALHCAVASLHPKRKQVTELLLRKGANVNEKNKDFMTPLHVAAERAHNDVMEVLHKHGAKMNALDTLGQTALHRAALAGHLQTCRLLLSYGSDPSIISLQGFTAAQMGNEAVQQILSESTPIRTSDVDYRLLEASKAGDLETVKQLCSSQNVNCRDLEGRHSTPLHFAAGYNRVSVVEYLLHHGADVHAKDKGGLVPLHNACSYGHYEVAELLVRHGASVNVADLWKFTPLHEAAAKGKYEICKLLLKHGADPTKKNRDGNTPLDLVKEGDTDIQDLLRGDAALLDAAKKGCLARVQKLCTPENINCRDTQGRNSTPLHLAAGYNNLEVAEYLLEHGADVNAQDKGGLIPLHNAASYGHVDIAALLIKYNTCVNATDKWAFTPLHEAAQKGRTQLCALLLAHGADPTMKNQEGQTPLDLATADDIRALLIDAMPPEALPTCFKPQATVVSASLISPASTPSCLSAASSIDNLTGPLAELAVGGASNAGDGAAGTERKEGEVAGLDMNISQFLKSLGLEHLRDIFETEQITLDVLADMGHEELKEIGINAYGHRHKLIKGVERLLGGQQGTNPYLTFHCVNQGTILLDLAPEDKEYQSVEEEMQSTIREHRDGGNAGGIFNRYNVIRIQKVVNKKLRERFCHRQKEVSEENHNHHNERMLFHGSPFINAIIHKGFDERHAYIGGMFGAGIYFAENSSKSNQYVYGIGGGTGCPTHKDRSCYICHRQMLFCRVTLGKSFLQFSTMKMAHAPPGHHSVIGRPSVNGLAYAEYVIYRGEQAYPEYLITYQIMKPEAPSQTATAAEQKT
Nature of the assay: Modified TNKS1 Assay 2 (auto-parsylation, [3H]-NAD+ SPA). It counts as biochemical. As to conditions: 6 nM TNKS1, 96 well. The method, then:
The potency of selected compounds according to the invention was assessed applying an modified in vitro inhibition assay. Here, the TNKS1 catalyzed NAD^+-dependent ribosylation of the enzyme itself (auto-parsylation) was detected using [^3H]-NAD^+ as substrate and applying the scintillation proximity assay (SPA) method to detect tritium-labeled, parsylated TNKS1. The intensity of the readout signal is proportional to the incorporated [^3H]-NAD^+. Inhibition of TNKS1 leads to a decreased incorporation of [^3H]-NAD^+ and consequently to a lower readout signal intensity. The concentration of a test compound which inhibits the enzyme activity by 50% (corresponds to half of the normed readout signal intensity) is reported as IC50.
The assay was conducted in a 96 well MTP format with the identical TNKS1 enzyme sample and NAD^+ sample as in the histone ribosylation assay with the following modifications: TNKS1 enzyme sample was diluted with a modified assay buffer (50 mM MES pH 7.0, 1 mM DTT, 0.01% Triton X-100) to a final concentration of 6 nM TNKS1 and 10×NAD^+ solution was diluted with the modified assay buffer (s. above) to a final 0.445×NAD^+ solution doped with 100 Bq/ul [^3H]-NAD^+[Catalog #NET443H050UC, Perkin Elmer, Waltham, Mass., USA]. Substrate solution (10 ul) was incubated with different test compound concentrations (2.5 ul in 10% DMSO in modified assay buffer) or control (2.5 ul 10% DMSO in modified assay buffer only) and enzyme (10 ul) over night at room temperature. Incorporated tritium was measured after addition of 50 ul SPA beads (1 mg/ml) [Catalog #RPNQ0095 20 mg/ml, Perkin Elmer, Waltham, Mass., USA; diluted 1:10 with Dulbecco's phosphate buffered saline, PBS Catalog #D8537, Sigma-Aldrich, Steinheim, Germany] and detection of the photon emission with a beta count plate reader [Wallac MicroBeta®, Perkin Elmer, Waltham, Mass., USA].
Turning to `CNC(=O)c1nc[nH]c1C(=O)Nc1ccc(NC(=O)c2c(F)cc(F)cc2Cl)cc1` [Example 118, N^5-{4-[(2-chloro-4,6-difluorobenzoyl)amino]phenyl}-N^4-methyl-1H-imidazole-4,5-dicarboxamide], the 50% inhibitory concentration (IC50) is 80 nM. With `O=C(Nc1ccc(NC(=O)c2nc[nH]c2C(=O)NC(CO)CO)cc1)c1ccccc1Cl` [Example 157, N^4-{4-[(2-chlorobenzoyl)amino]phenyl}-N^5-(1,3-dihydroxypropan-2-yl)-1H-imidazole-4,5-dicarboxamide] the figure was 1200 nM; with `CNC(=O)c1nc[nH]c1C(=O)Nc1ccc(NC(=O)c2cc(OC)c(OC)cc2Cl)cc1` [Example 240, N^5-{4-[(2-chloro-4,5-dimethoxybenzoyl)amino]phenyl}-N^4-methyl-1H-imidazole-4,5-dicarboxamide], 8 nM; with `CNC(=O)c1nc[nH]c1C(=O)Nc1ccc(NC(=O)c2cnccc2Cl)cc1` [Example 254, N^5-(4-{[(4-chloropyridin-3-yl)carbonyl]amino}phenyl)-N^4-methyl-1H-imidazole-4,5-dicarboxamide], 570 nM. `CNC(=O)c1nc[nH]c1C(=O)Nc1ccc(NC(=O)c2ccc(Cl)cc2Cl)cc1` [Example 9, N^5-{4-[(2,4-dichlorobenzoyl)amino]phenyl}-N^4-methyl-1H-imidazole-4,5-dicarboxamide] gave an IC50 of 150 nM. Molecule `CNC(=O)c1nc[nH]c1C(=O)Nc1ccc(NC(=O)c2ccccc2OC(F)(F)F)cc1` [Example 243, N^4-methyl-N^5-(4-{[2-(trifluoromethoxy)benzoyl]amino}phenyl)-1H-imidazole-4,5-dicarboxamide] came in with an IC50 of over 10000 nM.

Molecule `CNC(=O)c1nc[nH]c1C(=O)Nc1ccc(NC(=O)c2cc(OC)ccc2Cl)cc1` [Example 248, N^5-{4-[(2-chloro-5-methoxybenzoyl)amino]phenyl}-N^4-methyl-1H-imidazole-4,5-dicarboxamide] gave an IC50 of 240 nM.

Molecule `CNC(=O)c1nc[nH]c1C(=O)Nc1ccc(NC(=O)c2cccc(OC)c2Cl)cc1` [Example 252, N^5-{4-[(2-chloro-3-methoxybenzoyl)amino]phenyl}-N^4-methyl-1H-imidazole-4,5-dicarboxamide] showed an IC50 of 9300 nM.

On to `O=C(Nc1ccc(NC(=O)c2nc[nH]c2C(=O)NCCF)cc1)c1ccccc1Cl` [Example 166, N^4-{4-[(2-chlorobenzoyl)amino]phenyl}-N^5-(2-fluoroethyl)-1H-imidazole-4,5-dicarboxamide], for which the IC50 was determined as 240 nM.

Molecule `CNC(=O)c1nc[nH]c1C(=O)Nc1ccc(NC(=O)c2ccc(F)cc2)cc1` [Example 20, N^5-{4-[(4-fluorobenzoyl)amino]phenyl}-N^4-methyl-1H-imidazole-4,5-dicarboxamide] showed an IC50 of over 10000 nM. `O=C(Nc1ccc(NC(=O)c2nc[nH]c2C(=O)NCCCN2CCOCC2)cc1)c1ccccc1Cl` [Example 200, N^4-{4-[(2-chlorobenzoyl)amino]phenyl}-N^5-[3-(morpholin-4-yl)propyl]-1H-imidazole-4,5-dicarboxamide]: the IC50 was determined as 350 nM. With `CCNC(=O)c1nc[nH]c1C(=O)Nc1ccc(NC(=O)c2ccc(OCC)cc2Cl)cc1` [Example 259, N^5-{4-[(2-chloro-4-ethoxybenzoyl)amino]phenyl}-N^4-ethyl-1H-imidazole-4,5-dicarboxamide], the IC50 turned out to be 300 nM. As for `CC(C)CNC(=O)c1[nH]cnc1C(=O)Nc1ccc(NC(=O)c2ccc(F)cc2Cl)cc1` [Example 147, N^4-{4-[(2-chloro-4-fluorobenzoyl)amino]phenyl}-N^5-isobutyl-1H-imidazole-4,5-dicarboxamide], half-maximal inhibition (IC50) required 110 nM. As for `CNC(=O)c1nc[nH]c1C(=O)Nc1ccc(NC(=O)c2ccc(OC(F)F)cc2F)cc1` [Example 251, N^5-(4-{[4-(difluoromethoxy)-2-fluorobenzoyl]amino}phenyl)-N^4-methyl-1H-imidazole-4,5-dicarboxamide], the IC50 was over 10000 nM.

The record behind these values is patent US9884063B2, “Amido-substituted azole compounds” (Bayer Pharma Aktiengesellschaft, priority 2014, dated 2018).
